# Experimental data from the supplement of paper PMC10307832.
# Experiments:
# Experiment in all cases: relative viability (nuclei count vs DMSO), 5 days (fraction); higher = more cells survive
# [1] = compound: COc1cc2nc(N3CCCN(C)CC3)nc(NC3CCN(Cc4ccccc4)CC3)c2cc1OC + O=C(c1cc(Cc2n[nH]c(=O)c3ccccc23)ccc1F)N1CCN(C(=O)C2CC2)CC1 [Olaparib] (partner 8 µM)
# Summary of the method: (§1)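 Relative viability is defined as nuclei in treated wells over nuclei in vehicle wells. Duplicate plates were run and medians reported. Lung cancer cell lines in 1536-well plates were dosed by pin tool one day after seeding, with one drug or with a fixed anchor-drug dose plus five library-drug doses (not always all listed) in √10 steps, and nuclei were counted after 5 days.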
# [2] = compound: COc1cc2nc(N3CCCN(C)CC3)nc(NC3CCN(Cc4ccccc4)CC3)c2cc1OC + Cc1cc(Nc2cc(N3CCN(C)CC3)nc(Sc3ccc(NC(=O)C4CC4)cc3)n2)n[nH]1 [Tozasertib] (partner 0.1 µM)
# Summary of the method: as §1
# [3] = compound: COc1cc2nc(N3CCCN(C)CC3)nc(NC3CCN(Cc4ccccc4)CC3)c2cc1OC + CS(=O)(=O)CCNCc1ccc(-c2ccc3ncnc(Nc4ccc(OCc5cccc(F)c5)c(Cl)c4)c3c2)o1 [Lapatinib] (partner 2 µM)
# Summary of the method: as §1
# [4] = compound: COc1cc2nc(N3CCCN(C)CC3)nc(NC3CCN(Cc4ccccc4)CC3)c2cc1OC + CC(C)C[C@H](NC(=O)[C@H](Cc1ccccc1)NC(=O)c1cnccn1)B(O)O [Bortezomib] (partner 0.002 µM)
# Summary of the method: as §1
# [5] = compound: COc1cc2nc(N3CCCN(C)CC3)nc(NC3CCN(Cc4ccccc4)CC3)c2cc1OC + C[C@]1(O)C[C@@H](c2nc(-c3ccc4ccc(-c5ccccc5)nc4c3)c3c(N)nccn32)C1 [Linsitinib] (partner 1 µM)
# Summary of the method: as §1
Cell Line,relative viability ([1]; first compound 0.2 µM),relative viability ([1]; first compound 0.6325 µM),relative viability ([1]; first compound 2 µM),relative viability ([1]; first compound 6.325 µM),relative viability ([2]; first compound 0.2 µM),relative viability ([2]; first compound 0.6325 µM),relative viability ([2]; first compound 2 µM),relative viability ([2]; first compound 6.325 µM),relative viability ([3]; first compound 0.2 µM),relative viability ([3]; first compound 0.6325 µM),relative viability ([3]; first compound 2 µM),relative viability ([3]; first compound 6.325 µM),relative viability ([4]; first compound 0.2 µM),relative viability ([4]; first compound 0.6325 µM),relative viability ([4]; first compound 2 µM),relative viability ([4]; first compound 6.325 µM),relative viability ([5]; first compound 0.2 µM),relative viability ([5]; first compound 0.6325 µM),relative viability ([5]; first compound 2 µM),relative viability ([5]; first compound 6.325 µM)
NCI-H2342,0.482,0.349,0.46,0.459,0.503,0.659,0.57,0.511,–,–,–,–,–,–,–,–,–,–,–,–
HCC-15,0.738,0.674,0.754,0.695,0.477,0.378,0.557,0.368,0.888,0.789,0.824,0.765,1.03,1.02,1.12,0.881,0.895,0.903,0.95,0.734
A-427,0.708,0.705,0.833,0.768,0.188,0.221,0.238,0.279,1.07,0.977,1.05,1,0.962,0.869,1.09,0.957,1.13,1.06,1.13,1.18
NCI-H2228,0.637,0.62,0.46,0.35,0.254,0.311,0.265,0.257,0.959,1.34,1.23,0.757,0.91,0.841,1.47,0.519,0.59,0.587,0.83,0.476
NCI-H1734,0.61,0.533,0.645,0.594,0.277,0.249,0.26,0.217,1.11,0.977,1.06,0.76,0.919,0.792,1.05,0.662,0.964,0.811,0.832,0.83
PC-14,0.322,0.374,0.279,0.0641,0.587,0.61,0.64,0.505,0.334,0.339,0.372,0.308,0.984,0.72,0.981,0.461,0.923,0.91,1.02,0.865
NCI-H1915,0.243,0.267,0.272,0.251,0.441,0.465,0.464,0.426,1.01,0.875,1.02,0.956,0.97,0.973,1.02,0.957,1.05,1.08,1.12,1.08
NCI-H1666,0.716,0.754,0.756,0.751,0.569,0.727,0.635,0.625,0.508,0.746,0.475,0.332,0.832,0.781,0.701,0.468,0.866,0.919,0.783,0.675
HCC-366,0.451,0.304,0.376,0.294,0.117,0.108,0.105,0.0544,1.02,1.03,1.12,0.956,1.02,1,1.03,0.927,0.68,0.642,0.694,0.586
SK-MES-1,0.66,0.669,0.648,0.0414,0.882,0.912,0.852,0.1,0.476,0.433,0.539,0.483,–,–,–,–,1,1,1.08,1.01
SW 1573,0.496,0.473,0.487,0.125,0.196,0.165,0.246,0.128,1.15,1.07,1.26,1.05,1.16,0.893,0.882,0.853,0.74,0.806,0.768,0.758
NCI-H661,0.731,0.713,0.822,0.782,0.377,0.342,0.344,0.363,0.568,0.503,0.68,0.563,0.813,0.793,0.935,0.868,0.553,0.56,0.779,0.634
PC-3 [JPC-3],1.2,1.24,1.31,0.966,0.932,0.915,0.938,0.88,0.481,0.424,0.438,0.468,0.793,0.787,0.962,0.675,1,0.931,1.01,0.903
NCI-H1623,–,–,–,–,0.432,0.45,0.442,0.411,–,–,–,–,–,–,–,–,–,–,–,–
Calu-6,0.598,0.542,0.591,0.537,–,–,–,–,1.02,0.985,1.19,0.985,0.976,0.942,1.03,0.948,0.881,0.903,1.02,0.962
LC-2-ad,0.778,0.728,0.72,0.701,0.493,0.436,0.551,0.47,0.853,0.992,1.01,0.898,1.03,1.01,1.16,1.04,0.889,0.818,0.891,0.833
CAL-12T,0.676,0.689,0.8,0.699,0.363,0.381,0.365,0.323,0.58,0.626,0.603,0.672,0.996,1.32,1.05,0.833,0.745,0.829,0.944,0.726
RERF-LC-KJ,0.857,0.898,1.04,0.637,0.508,0.523,0.47,0.417,0.832,0.863,0.875,0.829,1.12,1.08,1.14,1.02,0.883,0.856,0.894,0.886
NCI-H1650,0.773,0.787,0.886,0.648,0.482,0.483,0.576,0.49,0.75,0.813,0.915,0.579,0.228,0.189,0.2,0.216,–,–,–,–
BEN,1.01,1.07,1.12,1.07,0.532,0.47,0.576,0.525,0.721,0.953,0.94,0.721,0.781,0.952,1.09,0.883,0.914,0.949,1.04,1.01

Cell Line,relative viability ([1]; first compound 0.2 µM),relative viability ([1]; first compound 0.6325 µM),relative viability ([1]; first compound 2 µM),relative viability ([1]; first compound 6.325 µM),relative viability ([2]; first compound 0.2 µM),relative viability ([2]; first compound 0.6325 µM),relative viability ([2]; first compound 2 µM),relative viability ([2]; first compound 6.325 µM),relative viability ([3]; first compound 0.2 µM),relative viability ([3]; first compound 0.6325 µM),relative viability ([3]; first compound 2 µM),relative viability ([3]; first compound 6.325 µM),relative viability ([4]; first compound 0.2 µM),relative viability ([4]; first compound 0.6325 µM),relative viability ([4]; first compound 2 µM),relative viability ([4]; first compound 6.325 µM),relative viability ([5]; first compound 0.2 µM),relative viability ([5]; first compound 0.6325 µM),relative viability ([5]; first compound 2 µM),relative viability ([5]; first compound 6.325 µM)
NCI-H2170,0.623,0.576,0.675,0.566,0.696,0.703,0.788,0.752,0.253,0.28,0.254,0.272,–,–,–,–,–,–,–,–
NCI-H1299,0.951,0.909,0.997,0.928,–,–,–,–,0.965,0.933,0.972,0.862,1.01,1.01,1.02,1.05,1.01,0.939,1.1,0.97
EBC-1,0.698,0.647,0.757,0.5,–,–,–,–,0.222,0.177,0.18,0.155,0.469,0.476,0.437,0.265,0.887,0.879,1.09,0.753
NCI-H1648,–,0.713,–,1.01,0.491,0.527,0.508,0.538,–,–,–,–,–,–,–,–,–,–,–,–
NCI-H1792,0.49,0.409,0.485,0.441,–,–,–,–,0.953,0.893,0.94,1.02,0.952,1.01,1.08,1.22,0.61,0.512,0.496,0.598
ChaGo-K-1,0.386,0.44,0.375,0.39,0.206,0.218,0.219,0.244,–,–,–,–,0.995,1.13,1.16,0.838,–,–,–,–
LK-2,0.778,0.68,0.893,0.867,0.199,0.178,0.187,0.19,0.983,0.996,1.14,0.909,–,–,–,–,0.472,0.539,0.624,0.644
NCI-H1944,0.416,0.436,0.397,0.396,0.248,0.277,0.268,0.28,0.778,0.961,–,0.762,–,–,–,–,1.11,1.23,–,1.13
NCI-H1793,0.805,0.924,1.09,0.995,0.338,0.386,0.359,0.322,0.75,0.742,0.855,0.664,–,–,–,–,0.912,1.02,1.21,0.959
A549,0.309,0.374,0.206,0.368,–,–,–,–,1.06,0.897,1.04,0.827,–,–,–,–,0.648,0.549,0.713,0.684
NCI-H358,0.51,0.628,0.644,0.568,0.108,0.111,0.123,0.126,0.449,0.554,0.49,0.347,–,–,–,–,0.837,0.66,0.741,0.52
NCI-H1563,–,–,–,–,–,–,–,–,0.913,0.982,0.81,0.734,0.849,0.921,0.808,0.778,1.29,1.19,1.19,1.16
NCI-H1395,0.444,0.473,0.445,0.433,0.784,0.705,0.835,0.81,0.987,1.08,1.29,0.831,–,–,–,–,1.16,1.13,0.912,1.12
NCI-H522,0.556,0.788,0.58,0.554,0.573,0.671,0.547,0.606,–,–,–,–,–,–,–,–,–,–,–,–
IA-LM,0.682,0.75,0.831,0.756,–,–,–,–,–,0.888,1.03,0.669,0.705,0.764,1.04,0.737,0.724,0.5,0.661,0.458
NCI-H1703,0.395,0.334,0.365,0.394,–,–,–,–,0.981,0.901,1.05,0.458,0.37,0.379,0.316,0.203,0.593,0.398,0.533,0.69
NCI-H441,0.566,0.495,0.691,0.551,0.607,0.623,0.581,0.69,–,–,–,–,0.454,–,0.519,0.36,0.527,–,0.515,0.553
LCLC-103H,0.751,0.732,0.802,0.748,0.396,0.494,0.462,0.453,–,–,–,–,1.18,1.09,1.31,1.01,1.1,1.13,1.28,1.04
SW 900,0.675,0.926,0.705,0.677,0.509,0.539,0.585,0.548,–,–,–,–,–,–,–,–,–,–,–,–
